Data as given in patent publication US20040086942A1, “Ige receptor antagonists” (priority 2003, published 2004).
“And” between values parts separate entries of the source, which are not always exact repeats. Equal values may be shown once. Read-outs that look alike come from different tables or passages of the source. Values belong to the compound of their own block, whether it stands above or below them. Where a SMILES comes first, the peptide text is derived from it. Bridges are numbered along the chain shown (N, C = ends).

Tests used:
FcεRI-IgG = biological target: T1, FcεRI-IgG (Homo sapiens, UniProt P12319); test: g3 phage competitive binding ELISA (competition with soluble FcεRI-IgG); settings: for Relative (IC50) (fold weaker): relative to g3c.42, NDB = no detectable binding
T1 construct: consisting of the extracellular domain of FcεR Ifused to the Fc domain of IgG; host or cells: CHO cells
T1 sequence (P12319 26-205 limits assumed): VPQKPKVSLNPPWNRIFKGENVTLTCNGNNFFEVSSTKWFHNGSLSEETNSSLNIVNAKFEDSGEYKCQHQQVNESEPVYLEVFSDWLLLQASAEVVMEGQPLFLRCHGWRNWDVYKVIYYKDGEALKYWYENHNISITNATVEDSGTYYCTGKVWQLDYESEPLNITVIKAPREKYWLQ
Experimental: A phage based competitive binding ELISA for immobilized FcεRI-IgG in the presence of titrated amounts of soluble FcεRI-IgG was performed on each of the clones.
Peptide sequences from g8p-fused phage clones that specifically bound FcεRI-IgG were transferred onto a g3p-display format for monovalent phage display (Bass et al., Proteins 8, 309-314 (1990); Lowman et al., Biochemistry 30, 10832-10838 (1991)). An oligonucleotide encoding for each desired peptide with additional 5′ and 3′ base pair that overlapped with g3 was synthesized. This oligonucleotide was annealed with a g3 single stranded DNA phagemid template. The mutagenesis reaction was transformed into XL-1 Blue E. coli and plated on LB-carb+ agar plates. Individual colonies were propagated in 5 mL of 2YT broth, tetracycline, carbenicillin and VCSM13 helper phage (Stratagene). Single stranded DNA was isolated from the purified phage particles and sequenced to confirm the insertion of the phage peptide sequence. 25 mL preparations of g3 phage clones were propagated overnight and purified by PEG precipitation. After resuspension of the phage pellet in 1.0 mL of PBS, it was serially diluted ⅓ and incubated with immobilized FcεRI-IgG 2 ug/mL in a 96 well Maxisorp microtiter plate for 1 hour at room temperature. The wells were washed 10× with PBST then incubated with 100 uL of anti M13 phage HRP as described above. An OD(492) value corresponding to less than 50% binding was selected and the purified phage clones were diluted to yield this normalized level of signal. […] The mixture was then transferred to 96 well microtiter dishes containing immobilized FcεRI-IgG. After a 1-hour incubation period, the plates were washed 10 times, incubated with anti M13-HRP conjugated antibody and developed with OPD as described above. The data was plotted, and 4-parameter fits (KaleidaGraph 3.0) used for calculation of IC50 values.
Alanine substitutions were made at various positions throughout the peptide sequence for monovalent (g3p) phage display using site directed mutagenesis as described (Kunkel et al., Methods Enzymol. 204, 125-139 (1991)). In addition, stepwise N-terminal and C-terminal truncations of the peptide sequence were constructed. All constructs were made by designing oligonucleotides corresponding to the desired substitution or truncation, with an additional 18 bp of DNA overlapping the peptide or g3 phage DNA sequence. The phage clones were propagated overnight following infection in XL-1 Blue E. coli. Purified phage preparations were titered and assayed for binding to immobilized receptor. FcεRI-IgG competition assays were performed as described above.

[1] = biological target: T2, alpha subunit of the human FcεRI receptor (Homo sapiens, UniProt P12319); test: cell-based 125I-IgE binding inhibition assay on CHO FcεRI+ cells; settings: for fold reduction in inhibition/binding: truncations and alanine substitutions of IGE063
T2 construct: expressed in transfected cells; host or cells: Chinese hamster ovary (CHO FcεRI+) cells
T2 sequence (P12319 26-257): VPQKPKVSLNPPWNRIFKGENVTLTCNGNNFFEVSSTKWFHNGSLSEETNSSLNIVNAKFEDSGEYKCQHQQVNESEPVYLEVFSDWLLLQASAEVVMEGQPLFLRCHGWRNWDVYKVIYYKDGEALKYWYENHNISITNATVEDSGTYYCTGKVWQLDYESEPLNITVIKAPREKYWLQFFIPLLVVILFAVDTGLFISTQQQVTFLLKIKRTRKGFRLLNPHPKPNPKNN
In short: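 Peptides, serially diluted 1:3 from 50-500 uM, preincubated 1 h at room temperature on CHO cells expressing human FcεRI alpha, then 1.5 nM 125I-IgE added for 45-60 min at 4 °C. Buffer F12/DMEM, 1% BSA, 0.05% NaN3, pH 7.2. Bound counts by gamma counting; IC50 from 4-parameter fits.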

[2] = 2D NMR structural score versus reference peptide; type: physicochemical; parameters: key to Struct. Score: +++ indicates the peptide is structured similarly to IGE063 (SEQ ID NO:49); + indicates the peptide is structured similarly to IGE063 (SEQ ID NO:49), but is less stable; −/+ indicates the peptide has some elements of stable structure, but the conformation differs from the reference structure (e.g., a different turn type is evident); − indicates the peptide is predominantly unstructured in aqueous solution; key to Structure Score: +++, peptide structurally similar to reference; +, structurally similar to reference but significantly less stable; +/−, peptide has some elements of stable structure, but the conformation differs from the reference structure; −, peptide is predominantly unstructured; *peptide IGE037 (SEQ ID NO:128) was initially unstructured (monomeric form), but became structured after spontaneous dimer formation; settings: for Struct. Score: reference IGE063
Experimental: Peptides were evaluated by 2D NMR spectroscopy to assess the effect of substitutions on the three-dimensional structure of the peptide analog. All peptides with a structural score indicated in Table 5 were analyzed by 2D NMR spectroscopy; backbone ^1H resonances were assigned and ^3JHN-Hα coupling constants were measured and compared to the reference peptide (IGE063, SEQ ID NO:49; see Example 5). Peptides are defined to be of similar structure to the reference peptide provided chemical shifts, coupling constants, and NOEs are consistent with that structure.
A structural score was assigned to peptides analyzed by 2D NMR spectroscopy. For each of these peptides, backbone ^1H resonances have been assigned, and the ^3JHN-Ha coupling constants have been measured and compared to the reference peptide (i.e., IGE134 (SEQ ID NOS:155, 171)). Peptides are defined to be of similar structure to the reference peptide provided. chemical shifts, coupling constants, and NOEs are consistent with that structure.

[3] = g3 phage clones, immobilized FcεRI-IgG, titrated soluble FcεRI-IgG, read-out: Phage IC50
[4] = truncated peptides on g3 phage, read-out: IC50

IC50 (FcεRI-IgG; [3]): 14 nM
Compound: GRTECTEGPWGWVCMAAD [g3b.8]

Relative (IC50) (fold weaker) (FcεRI-IgG; truncated peptides on g3 phage): 1X
IC50 (FcεRI-IgG; [4]): 3 nM
Compound: LPRCTEGPWGWVCMAAD [g3c.1]

IC50 (FcεRI-IgG; [3]): 7 nM
Compound: NLPTCTEGPWGWVCMAAD [g3b.3]

IC50 (FcεRI-IgG; [3]): 7 nM
Compound: VMPTCTEGPWGWVCMAAD [g3b.4]

Relative (IC50) (fold weaker) (FcεRI-IgG; truncated peptides on g3 phage): 1X
IC50 (FcεRI-IgG; [4]): 6.1 nM
Compound: NLPRCTEGPWGWVCMA [g3c.31]

IC50 (FcεRI-IgG; [3]): 10 nM
Compound: AMAQCTEGPWGWVCMAAD [g3b.5]

IC50 (FcεRI-IgG; [3]): 13 nM
Compound: NLPRCTEGPWGWVCMAAD [g3b.1]

fold reduction in inhibition/binding [1]: 30 fold
Struct. Score [2]: +
Compound: CSCC[C@H](NC(=O)[C@@H]1CSSC[C@H](NC(=O)[C@H](CCCNC(=N)N)NC(=O)[C@@H]2CCCN2C(=O)[C@H](CC(C)C)NC(=O)[C@@H](N)CC(N)=O)C(=O)N[C@@H]([C@@H](C)O)C(=O)N[C@@H](CCC(=O)O)C(=O)NCC(=O)N2CCC[C@H]2C(=O)N[C@@H](Cc2c[nH]c3ccccc23)C(=O)N[C@@H](C)C(=O)N[C@@H](Cc2c[nH]c3ccccc23)C(=O)N[C@@H](C(C)C)C(=O)N1)C(=O)O [IGE074, NLPRCTEGPWAWVCM] (H-NLPRCTEGPWAWVCM-OH; disulfide 5-14)

IC50 ([1]; IGE037: initially, read-out: IC50): > 500000 nM
Structure Score ([2]; reference IGE134): −
Compound: CC(=O)N[C@@H](C)C(=O)N[C@@H](CC(C)C)C(=O)N[C@H]1CSSC[C@@H](C(=O)N[C@@H](Cc2ccc(O)cc2)C(=O)N[C@H](C(N)=O)C(C)C)NC(=O)[C@H](C(C)C)NC(=O)[C@H](C)NC(=O)[C@@H]2CCCN2C1=O [IGE038, Ac-ALCPAVCYV-nh2] (Ac-ALCPAVCYV-NH2; disulfide 3-7)

IC50 (FcεRI-IgG; [3]): 16 nM
Compound: GRAQCTEGPWGWVCMAAD [g3b.6]

fold reduction in inhibition/binding [1]: 65 fold
Struct. Score [2]: +
Compound: CSCC[C@H](NC(=O)[C@@H]1CSSC[C@H](NC(=O)[C@H](CCCNC(=N)N)NC(=O)[C@@H]2CCCN2C(=O)[C@H](CC(C)C)NC(=O)[C@@H](N)CC(N)=O)C(=O)N[C@@H]([C@@H](C)O)C(=O)N[C@@H](CCC(=O)O)C(=O)NCC(=O)N2CCC[C@H]2C(=O)N[C@@H](Cc2c[nH]c3ccccc23)C(=O)NCC(=O)N[C@@H](C)C(=O)N[C@@H](C(C)C)C(=O)N1)C(=O)O [IGE073, NLPRCTEGPWGAVCM] (H-NLPRCTEGPWGAVCM-OH; disulfide 5-14; N-terminus and C-terminus assumed)

Relative (IC50) (fold weaker) (FcεRI-IgG; truncated peptides on g3 phage): 1X
IC50 (FcεRI-IgG; [4]): 3.1 nM and 5.6 nM
Compound: NLPRCTEGPWGWVCMAAD [g3c.42]
